Reference: patent US10548854B2, “Manufacture of nonelectronic, active-infusion patch and device for transdermal delivery across skin” (The Hong Kong University of Science and Technology, priority 2012, dated 2020)

Legend:
[1] = In-vivo DFS delivery across skin by microneedle plates; parameters: species or system Sprague Dawley rats; settings: 200 μl of 5 mg/ml DFS bolus, skin sampled after 5 min
Experimental: A in-vivo test was conducted on Sprague Dawley rates between approximately 230 g-250 g to analyze DFS delivery. […] 200 μl of 5 mg/ml DFS in phosphate buffered saline (PBS) was injected through rats' naked skin with either zeolite microneedles or commercial microneedles in bolus. A negative control consisted of placing excess DFS solution on rats' naked skin. After 5 min, the skins were washed by iced DI water. About 1 mm diameter of skin samples at the injection sites were carefully cut and then weighed in 2 ml centrifuge tubes. Then the skin samples were homogenized in 5 fold PBS buffer by sonication. DFS was extracted from the homogenate by liquid-phase extraction using 500 μl ethyl-acetate for twice. The ethyl-acetate was collected into 1.5 ml centrifuge tubes and then removed under vacuum. The residues were reconstituted by 500 μl ACN:H2O (50:50 w/w ratio) and 200 μl of the reconstituted solution was send for UPLC analysis.

[2] = pig, 8 h, pH 7.4
From the text: (§1) Porcine ears were freshly obtained from a local slaughter facility, gently washed with running tap water, and chopped into pieces of 50 mm in width. Visual observation was done to check if the skins were free from lesions and infections. Hairs at the back of the ear were carefully removed by clipper. Full thickness skins were obtained using manual-operated dermatome with uniform insertion force and angle. The split skins were cut into discs with 40 mm diameter. The skins were then sprayed and rubbed with 75% ethanol for 1 mm to remove fatty tissues and dirt, followed by DI water washing. Thereafter the skins were blotted with a cellulose-based fiber tissue, such as […] ™, wrapped with aluminum foil, and stored in a −20° C. refrigerator until further use. All prepared porcine skin was used within 2 weeks.
(§2) Vertical diffusion cell was filled with 7 mL phosphate buffered saline (PBS) (137 mM sodium chloride (NaCl), 2.7 mM potassium chloride (KCl), 4.3 mM sodium phosphate dibasic heptahydrate (NaH2PO4.7H2O), and 1.6 mM potassium phosphate monobasic (KH2PO4), pH 7.4) and pre-run at 300 rpm with bath circulator for 1 hr to achieve 37° C. Porcine skin was thawed by soaking in PBS at room temperature for 1 hr. After that, the porcine skin was mounted between the receptor and the donor cell of the diffusion system. The stratum corneum of the skin faced the donor cell while the dermis side faced the receptor cell. The skin was handled with care to avoid bubble accumulation on the receptor side of the skin. Diclofenac sodium (DFS) or insulin (70 μL) and DI water (500 μL) were loaded into the drug and water reservoirs, respectively, through the resealable injector ports. A patch, such as those described in previous examples, was gently shaken to ensure water could make contact with the dried hydrogel inside. The patch was applied on the donor side of the skin by finger force, with the help of adhesive tapes to keep the patch in position. Samples (1 mL) were withdrawn from the receptor cell every hour with immediate replenishment of the same volume of fresh PBS. The tests were done with patches bonded with commercial (ME-C-600), zeolite (SSM-O-150), or plastic (P-O-500) microneedles.
(§3) Quantification of DFS in samples was done by analysis under ultra-performance liquid chromatography (UPLC). With a gradient method A:B=70%:30% to 10%: 90% in 4 min (A=0.02% trifluoroacetic acid (TFA) in H2O; B=0.02% TFA in acetonitrile (ACN)), flow rate=0.45 mL/min with detection wavelength=210 nm. […] Negative control is achieved by direct pipetting of a known amount of drug on skin for diffusion.
(§4) A plastic microneedle plate was used in this experiment.

[3] = In-vitro transdermal delivery across porcine ear skin in vertical diffusion cell (active infusion microneedle patch)
From the text: as §1, §2, §3, §4

blood glucose level [4] = assay: In-vivo insulin delivery, blood glucose level; parameters: species or system Sprague Dawley rats; settings: after 1 hour
Experimental: For all zeolite microneedle, commercial microneedle, and the positive control, a significant pharmaceutical effect could be observed after 1 hour, when the blood glucose level of the rats dropped by about 4-fold from the original level and was subsequently maintained for some hours.

[5] = insulin administration by the transdermal patch, compared with other groups
Experimental: An in vivo test of insulin delivery was conducted on Sprague Dawley rats weighing between approximately 230 g-250 g, which were fasting overnight, but free to access water one day before the test. The rats were anesthetized by a ketamine/xylazine cocktail, and the abdominal hairs were completely removed by a hair clipper followed by chemical depilatory creams. About 80 μl of 100 IU/ml human insulin solution was transdermal administrated to individual rats by either zeolite microneedles or the same type of commercial microneedles used in Example 12. Fixed dosed 0.1 IU insulin solution or saline was also subcutaneously injected by syringes to simulate the positive and negative control respectively. The rats' blood glucose levels were recorded by a portable glucose meter (Roche, Accu-Chek Performa Nano) for 6 hours at different time intervals. For the first 4 hours 200 μl of blood samples were also collected by squeezing the rats' tails. The blood samples were centrifuge at 13000 G for 3 min and then the blood plasma was pipetted into 1.5 ml centrifuge tubes and stored under −80° C. for blood insulin test. The blood insulin levels were tested by an ELISA kit (Mercodia, Human Insulin ELISA). […]
In pharmacokinetics, the administration efficiency of a certain drug is commonly evaluated by its Cmax and Tmax. […]

blood glucose level [6] = settings: micro-needles and pressure force (10 psi); cited from earlier work

O=C(O)Cc1ccccc1Nc1c(Cl)cccc1Cl [DFS, Diclofenac sodium]
increase of transdermal DFS delivery compared with the negative control ([1]; commercial microneedle): ~5 times | increase in delivery amount compared with the commercial microneedle ([1]; zeolite microneedle): more than 3 fold | Percentage of DFS delivered [2]: 17.6±3.2% | Total amount of drug delivered [2]: 60.9±6.1% | DFS delivery rate ([3]; zeolite microneedle plate adhered to the patch, versus negative control): improves delivery rates

insulin
drop of blood glucose level from the original level (blood glucose level [4]; commercial microneedle, about 80 μl of 100 IU/ml human insulin): about 4 fold | drop of blood glucose level from the original level (blood glucose level [4]; positive control: 0.1 IU insulin subcutaneously injected by syringe): about 4 fold | drop of blood glucose level from the original level (blood glucose level [4]; zeolite microneedle, about 80 μl of 100 IU/ml human insulin): about 4 fold | Cmax (blood insulin level) [5]: highest | Tmax (blood insulin level) [5]: fastest | lowering of normalized blood glucose level (blood glucose level [6]): 70% | insulin delivery rate profile ([3]; active infusion patch with zeolite and commercial microneedles): linear insulin delivery rate | insulin permeated across skin ([3]; non-porated pig skin, skin patch test (negative control), 70 μL of 4.5 mg/mL insulin): less than 5%
